Experimental data reported in patent US20120316241A1, “REMEDY FOR CARTILAGE-RELATED DISEASES” (ONO PHARMACEUTICAL CO., LTD., priority 2003, published 2012).

Assays:
[1] = system: rat femur head articular cartilage; test: PCNA immunohistological staining of organ-cultured articular cartilage; settings: 1 μM, after 7 days of organ culture
Procedure: (§1) The cartilage deficiency model was prepared from a femoral condyle articular cartilage collected from a rat of 5 weeks of age, by cutting the cartilage layer alone such that damage is not given to the subchondral bone. The femur was soaked in the DMEM/Ham's F12 medium (contains 5 μM indometacin) and cultured for 21 days in the presence (treated group) or absence (control group) of the selective EP agonist described in Example 2 (10 μM or 1 μM). Area of the newly formed cartilage tissue was measured using Image-Pro Plus software (mfd. by Planetron) and calculated as an area ratio with the untreated lateral joint face.
(§2) The formalin-fixed sections were prepared on the 0th day, 7th day, 14th day and 21st day starting from the commencement of tissue culturing described in Example 8. Each section was decalcified with EDTA (10% w/v) for 7 days and then sliced into a section of 4 μm in thickness. The hematoxylin-eosin staining and alcian blue staining were carried out by the aforementioned method.
Regarding the PCNA immuno histological staining, the prepared slide was treated with 3% hydrogen peroxide and then subjected to a blocking treatment using a blocking solution (mfd. by Dako Cytomation). […] After washing, the reaction with a substrate, 3,3′-diaminobenzidine tetrahydrochloride (mfd. by Dako Cytomation), was detected. […]

chondrocyte strain = test: gene expression profile by cDNA microarray, reconfirmed by RT-PCR; type: cell-based, mouse; settings: 1 μM, 72 hours, medium with 5 μM indometacin
Procedure: Culturing of each chondrocyte was started at a cell density of 3×10^5 cells/100 mm culture dish, and 2 days and 21 days thereafter, respective total RNA samples were prepared using Trizol Reagent (mfd. by Life Technologies) in accordance with the instructions attached thereto. The RT reaction was carried out in accordance with the instructions attached to RT-PCR kit (mfd. by Life Technologies) using 1 μg of the thus prepared total RNA. The PCR reaction was carried out in 25 μl of a reaction liquid (20 μmol sense primer, 20 μmol antisense primer, 25 mM MgCl2, 0.2 mM dNTP, 1 unit γTaq polymerase (mfd. by TOYOBO., LTD.)) containing 1 μl of the RT reaction liquid. The PCR reaction (in the reaction, starting reaction was carried out at 94° C. for 5 minutes, and then the following reaction (denaturation reaction at 94° C. for 1 minute, annealing reaction at 72° C. for 1 minute and elongation reaction at 72° C. for 7 minutes) was carried out 35 times) was carried out using Gene Amp 9700 (mfd. by PE Applied Biosystem). Sequences of the primers used in the above RT-PCR are shown in the following.
Gene expression profile of chondrocytes was analyzed by a custom-made cDNA microarray system. This system was prepared by spotting 78 species of bone- and cartilage-related mouse genes and 900 species of mouse genes (InteliGene CHIP ver. 1) (mfd. by Takara Bio INC.) on a glass slide.
A chondrocyte was cultured for 72 hours in DMEM/F12 medium (contains 5 μM indometacin) in the presence or absence of each of the selective EP agonists shown in Example 2 (1 μM), and respective total RNA samples were extracted. A fluorescent cDNA probe was synthesized using 20 μg of each of the total RNA samples as the template, and using 400 U of M-MLV reverse transcriptase and Cy3 or Cy5-dUTP (Amersham Biosciences).
Each cDNA probe dissolved in a reaction buffer (6×SSC/0.2% SDS, 5×Denhardt's solution, 0.1 mg/ml denatured salmon sperm DNA) was allowed to hybridize with the spots on the glass slide at 65° C. overnight. The slide was washed with a washing liquid (2×SSC/0.2% SDS) twice at 55° C. for 5 minutes and then once at 65° C. for 5 minutes, and finally washed with 0.05×SSC solution at room temperature for 1 minute. The hybridization signal was visualized by Affymetrix 418 Array Scanner (mfd. by Affymetrix), and analyzed by ImaGene software (mfd. by BioDiscovery). Regarding the expressed genes in which changes were confirmed, reconfirmation was carried out by the RT-PCR method.

MMA2 chondrocyte strain = test: intracellular cAMP concentration (cAMP assay kit); type: cell-based, mouse; settings: 12 hours with agonist
Procedure: Cartilage tissues of a femur and the shinbone collected from a p53 defective mouse of 4 weeks of age (Tukada, T., Oncogene, 1992, vol. 8, pp. 3313-3322) were cut into pieces, treated with 0.1% collagenase and then cultured (culture conditions; 5% CO2, 37° C., under humidification, hereinafter, this was carried out under the same conditions) using DMEM/Ham's F12 (1:1) medium (contains 10% fetal bovine serum (FBS) and antibiotics (to be referred to as DMEM/Ham's F12 medium hereinafter)). By carrying out dilution sub-culturing from the cell group under a 80 to 90% confluent state, a chondrocyte strain MMA2 recognized by an international deposition number FERM BP-10029 was isolated. […]
Culturing of each chondrocyte was started at a cell density of 1×10^4 cells/24 well culture dish, and 2 hours thereafter, each of the selective EP agonists shown in Example 2 was added thereto to continue the culturing for additional 12 hours. The intracellular cAMP concentration was measured using a cAMP assay kit (Cayman Chemical Company) and in accordance with the instructions attached to the kit, using, as a sample, lysed supernatant of the cell prepared by lysing the same with a cell lysis liquid (0.1 mM Tris/HCl buffer, pH 7.2).

[2] = system: femoral condyle articular cartilage; test: cartilage deficiency model, femoral condyle articular cartilage organ culture; parameters: species or system rat
Procedure: as §1, §2

[3] = system: human primary-cultured chondrocyte; test: cell growth activity, BrdU incorporation assay; type: cell-based; settings: 1 μM overnight, then 8 hours with BrdU; normal cartilage and RA articular cartilage derived cells
Procedure: Human primary-cultured chondrocytes were isolated from knee articular cartilages of three patients who underwent above-knee amputation due to femur osteosarcoma. In addition, other human primary-cultured chondrocytes were obtained from rheumatic arthritis patients who underwent artificial hip joint replacement. Isolation operation of these cells was also carried out by the method described in the above.
The cell growth activity was measured by a BrdU incorporation assay using BrU labeling, detection kit (mfd. by Boehringer Mannheim GmbH).
Culturing of each chondrocyte was started at a cell density of 2×10^3 cells/96 well culture dish, and after adhesion of the cells, the selective EP agonist described in Example 2 (1 μM) was added thereto to start the culturing at 37° C. overnight. Subsequently, the culturing was continued for 8 hours together with BrdU (final concentration 110 μM), and the labeled nucleus was detected by the method of the instructions attached to the kit.

Structure (SMILES)	PCNA staining affinity [1]	expression of fibronectin, integrin, cyclin D1, MAZ, AP2α and 14-3-3γ genes (chondrocyte strain)	expression of osteopontin and MGP genes (chondrocyte strain)	intracellular cAMP (MMA2 chondrocyte strain)	ratio of the regenerated tissue (area ratio with the untreated lateral joint face) ([2]; 1 μM or 10 μM, cultured for 21 days)	tissue regeneration image (hematoxylin-eosin, alcian blue staining) ([2]; treated group against control group, 21 days)	DNA synthesis (BrdU incorporation) [3]
CCCCC[C@@H](/C=C/[C@H]1[C@H](OC)CC(=O)[C@@H]1C/C=C\CCCC(=O)O)OC [EP3 agonist, 11α,15α-dimethoxy-9-oxoprosta-5Z,13E-dienoic acid]	distinctively increased	stimulated	reduced	–	–	–	–
C=CCC1(C(O)C/C=C/[C@@H]2[C@@H](C/C=C\CCCC(=O)O)[C@H](Cl)C[C@H]2O)CCC1 (stereo partly drawn) [EP2 agonist, (5Z,9β,11α,13E)-17,17-propano-11,16-dihydroxy-9-chloroprostar-5,13,19-trienoic acid]	distinctively increased	stimulated	reduced	increased concentration-dependently	increased periodically and concentration-dependently	a regeneration image having a staining affinity of similar to that of a remaining existing cartilage (right side) was observed	DNA synthesis accelerating effect
